Results reported in patent publication US20140366440A1, “METHOD FOR PRODUCING CLONE SEEDLINGS” (OKAYAMA PREFECTURE, priority 2009, published 2014).

Experiments:
[1] = tested on: E. globulus wild-type (tissue culture); assay: Rooting of tissue-culture shoots planted to supporter infiltrated with rooting medium containing oxidized glutathione; assay type: in vivo, Eucalyptus globulus; conditions: for Rooting rate (%): 27 test pieces; for Number of rooted shoots: of 27 test pieces
Description: A foliage (shoot) grown to have a length of 2 cm to 5 cm was cut from a multiple shoot induced from a wild-type Eucalyptus globulus (hereinafter, abbreviated simply as an “E. globulus”). Inducing the multiple shoot followed a method described in Japanese Patent Application Publication, Tokukaihei, No. 8-228621 A. Specifically, a tissue (terminal bud and axillary bud) was collected from E. globulus (wild type), and the tissue thus collected was subjected to surface disinfection by immersing the tissue for twenty minutes in an sodium hypochlorite aqueous solution containing an amount of available chlorine of 1%. Then, the tissue which had been subjected to the surface disinfection was washed by sterilized water and was planted to a solid medium (MS medium containing sucrose of […], BA of 0.2 mg/L, and gellan gum of […]), and its bud was opened. Within three and four weeks after the culturing of the foliage was started, the culturing of the foliage was subcultured in a medium having a composition identical with that described above. […] Note that the foliages from the multiple shoot was grown in a medium having the composition identical with that used for forming the multiple shoot under the condition identical with that used for forming the multiple shoot.
A base of the shoot thus obtained was planted to a foaming phenolic resin porous supporter (Manufactured by Smithers-Oasis Company; Product name: Oasis). […] The base of the shoot was cultured for two months in carbon dioxide gas of 1000 ppm at a temperature of 25° C. under irradiation of red light having photosynthesis photon flux density of 51.3 μmol/m^2/S and having a wavelength component of 650 nm to 670 nm to a wavelength component of 450 nm to 470 nm at a ratio of 8.2:1.8. The culturing was carried out with a culture container, which was a cube container (maximum size of about 10 cm to 11.5 cm in length×10 cm to 11.5 cm in width×10.0 cm in height) having a shape whose bulge was slightly protruded. […] Carbon dioxide gas outside the culture container was allowed to enter the culture container through this carbon dioxide gas permeable membrane covering the opening. Accordingly, carbon dioxide gas concentration inside the culture container was about 1000 ppm due to the permeation of the carbon dioxide gas through the film covering the opening of the culture container. The culture container was irradiated with red light by use of a light irradiation device (Product name: CCFL unit, maker's name: Nippon Medical& Chemical Instruments CO., LTD.). Further, humidity in the culture container is adjusted by sealing the culture container with Parafilm.
Nine shoots were planted per culture container. A rooting rate was calculated from the number of test pieces of the shoot and the number of shoots (the number of rooted shoots) which had been rooted after the foliage was cultured for two months.

E. uro-grandis A = assay: Rooting of cuttings, oxidized glutathione solution sprayed to supporter; assay type: in vivo, crossbreed of eucalyptus urophylla and eucalyptus grandis; conditions: three weeks
Method: A crossbreed of eucalyptus urophylla and eucalyptus grandis (hereinafter, abbreviated as an “E. uro-grandis”) (Line name: A) was used as a material of a cutting. Specifically, a graft grown to have a length of about 5 cm to 20 cm, about one to three joints, and about two to six leaves was cut out from a mother tree, and a tip of each leaf was cut off by cutting off about a half from the tip thereof. In this way, the cutting was prepared.
A composite soil of carbonized chaff, coconut fiber, and vermiculite which had been put into a seedling pot (3 cm in inner diameter×15 cm in height) in advance was used as a supporter. Oxidized glutathione was dissolved in water so that an oxidized glutathione concentration became 50 mg/L. The oxidized glutathione solution was thus prepared. The oxidized glutathione solution was sprayed to the seedling pot from the above by use of a watering can so that the supporter was soaked with the oxidized glutathione solution (50 mg/L) by spraying a spray amount of water of about 8.5 ml of the oxidized glutathione solution per seedling pot. Thereafter, a base of the cutting was planted to the supporter. After this planting, the cutting was bred for three weeks in a green house which shielded sunlight by 50%. In the green house, a high humidity (80% or more) was kept by frequently spraying mist. After three weeks from the planting, a rooting ratio was calculated from the number of rooted cuttings.
A seedling was bred in the same way as Example 4, except that a solution having an oxidized glutathione concentration of 200 mg/L was used as the oxidized glutathione solution.
A seedling was bred in the same way as Example 4, except that a solution having an oxidized glutathione concentration of 500 mg/L was used as the oxidized glutathione solution.
A seedling was bred in the same way as Example 4, except that a solution having an oxidized glutathione concentration of 1000 mg/L was used as the oxidized glutathione solution.

[2] = Example 2: 50 mg/L in medium, two months
[3] = Example 3: 75 mg/L in medium, two months

oxidized glutathione
Rooting rate (%) ([1]; Example 1: 25 mg/L in medium, adding glutathione to rooting medium (with STS, ascorbic acid, IBA), cultured two months): 74.1%
Number of rooted shoots ([1]; Example 1: 25 mg/L in medium, two months): 20
Rooting rate (%) [1, 2]: 85.2%
Number of rooted shoots [1, 2]: 23
Rooting rate (%) [1, 3]: 51.9%
Number of rooted shoots [1, 3]: 14
Rooting rate (%) (E. uro-grandis A; Example 4: 50 mg/L solution, spraying to supporter (about 8.5 ml per pot), 44 test pieces): 75.0%
Number of rooted shoots (E. uro-grandis A; Example 4: 50 mg/L, spraying to supporter, of 44 test pieces): 33
Rooting rate (%) (E. uro-grandis A; Example 5: 200 mg/L, spraying to supporter, 44 test pieces): 77.3%
Number of rooted shoots (E. uro-grandis A; Example 5: 200 mg/L, spraying to supporter, of 44 test pieces): 34
Rooting rate (%) (E. uro-grandis A; Example 6: 500 mg/L, spraying to supporter, 44 test pieces): 84.1%
Number of rooted shoots (E. uro-grandis A; Example 6: 500 mg/L, spraying to supporter, of 44 test pieces): 37
Rooting rate (%) (E. uro-grandis A; Example 7: 1000 mg/L, spraying to supporter, 176 test pieces): 72.7%
Number of rooted shoots (E. uro-grandis A; Example 7: 1000 mg/L, spraying to supporter, of 176 test pieces): 128
